Several values for one entry are separate records, joined by “and”; a condition that tells them apart may be missing. Identical values can stand only once.
Biological target: Genome polyprotein (dengue virus type 2, UniProt P29990)
Format: functional, Thailand/16681/1984

Sequence of Genome polyprotein (P29990 1346-1475 limits assumed): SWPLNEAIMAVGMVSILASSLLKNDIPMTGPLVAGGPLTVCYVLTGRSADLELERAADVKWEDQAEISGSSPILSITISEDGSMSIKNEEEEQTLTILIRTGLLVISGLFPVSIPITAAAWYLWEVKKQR
Sequence of Genome polyprotein (P29990 1476-2093 limits assumed): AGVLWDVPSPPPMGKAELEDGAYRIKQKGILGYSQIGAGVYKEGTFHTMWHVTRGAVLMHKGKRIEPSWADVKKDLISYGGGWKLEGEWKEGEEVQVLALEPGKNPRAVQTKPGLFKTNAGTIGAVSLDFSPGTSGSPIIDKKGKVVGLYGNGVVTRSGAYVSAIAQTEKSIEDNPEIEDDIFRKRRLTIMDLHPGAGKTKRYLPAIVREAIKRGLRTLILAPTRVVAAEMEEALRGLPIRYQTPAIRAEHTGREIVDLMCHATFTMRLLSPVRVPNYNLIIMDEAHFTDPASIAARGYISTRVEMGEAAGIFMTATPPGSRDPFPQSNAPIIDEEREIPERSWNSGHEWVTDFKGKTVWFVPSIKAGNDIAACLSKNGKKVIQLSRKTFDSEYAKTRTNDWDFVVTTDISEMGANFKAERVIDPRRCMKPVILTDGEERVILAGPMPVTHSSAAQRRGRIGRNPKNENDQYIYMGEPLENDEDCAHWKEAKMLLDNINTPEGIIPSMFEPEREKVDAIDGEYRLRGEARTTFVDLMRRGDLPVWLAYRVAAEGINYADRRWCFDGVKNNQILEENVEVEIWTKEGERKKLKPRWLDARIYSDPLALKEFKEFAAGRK

Row | SMILES | IC50
1 | O=C(N[C@H](C(=O)NCc1cccc(CC(F)(F)F)c1)c1ccc(OCc2ccccc2)cc1)OCc1ccccc1 | > 99.5 µM
2 | CCn1c(=O)c(N2CCCC[C@H](N3CCCC3)C2)nc2ccccc21 | > 99.5 µM
3 | Cc1ccc([C@@H](NC(=O)OCc2ccccc2)C(=O)Nc2cccc(CN)c2)cc1C(F)(F)F | > 99.5 µM
4 | CCn1c(=O)c(N2C[C@@H](CO)[C@H](c3cncn3C)C2)nc2ccccc21 | > 99.5 µM
5 | NC(=O)c1cccnc1N1CCCN(c2nc(-c3cc(Cl)cc(Cl)c3)no2)CC1 | > 99.5 µM
6 | O=c1[nH]ncn1C1CCN(Cc2c[nH]c3ccccc23)CC1 | > 99.5 µM
7 | CCn1c(=O)c(N2CC[C@H](N3CCCS3(=O)=O)C2)nc2ccccc21 | > 99.5 µM
8 | N#Cc1ccccc1-c1ccc([C@H](NC(=O)OCc2ccccc2)C(=O)Nc2cccc(CN)c2)cc1 | 18.6 µM
9 | COc1ncccc1-c1ccc([C@@H](NC(=O)OCc2ccccc2)C(=O)Nc2cccc(CN)c2)cc1 | 23 µM
10 | CCNC(=O)[C@@H](NC(=O)OCc1ccccc1)c1ccc(OCc2ccccc2)cc1 | > 99.5 µM
11 | CCn1c(=O)c(N2C[C@H]3C[C@@H](O)CC[C@H]3C2)nc2ccccc21 | > 99.5 µM
12 | CS(=O)(=O)NCc1ccc(CNC(=O)[C@@H](NC(=O)OCc2ccccc2)c2ccc(OCc3ccccc3)cc2)cc1 | > 99.5 µM
13 | NCc1cccc(NC(=O)[C@@H](NC(=O)OCc2ccccc2)c2ccc(-c3ccc4scnc4c3)cc2)c1 | 42.9 µM
14 | Cn1cc(Nc2ccc(S(=O)(=O)Nc3ccc(Cl)cc3C(=O)O)cn2)cn1 | > 99.5 µM
15 | O=C(NS(=O)(=O)C1CC1)c1cc(Cl)ccc1NS(=O)(=O)c1ccc(Oc2ccccc2Cl)cc1 | 7.33 µM
16 | CC(C)n1cc(CNC(=O)[C@@H](NC(=O)OCc2ccccc2)c2ccc(OCc3ccccc3)cc2)cn1 | > 99.5 µM
17 | CN1Cc2ccc(CNC(=O)[C@@H](NC(=O)OCc3ccccc3)c3ccc(OCc4ccccc4)cc3)cc2C1 | > 99.5 µM
18 | CC[C@H]1CN2CCC[C@H]2CN1c1nc2ccccc2n(CC)c1=O | > 99.5 µM
19 | CCn1c(=O)c(N2C[C@@H]3CN(C4CCC4)C[C@@H]3C2)nc2ccccc21 | > 99.5 µM
20 | CCn1c(=O)c(N2CC3(CCC3)C[C@@H]2C)nc2ccccc21 | > 99.5 µM
21 | CC(C)c1cc(-c2ccc([C@@H](NC(=O)OCc3ccccc3)C(=O)Nc3cccc(CN)c3)cc2)on1 | > 99.5 µM
22 | NCc1cccc(NC(=O)[C@@H](NC(=O)OCc2ccccc2)c2ccc(-c3ccnc4[nH]ccc34)cc2)c1 | > 99.5 µM
23 | CCn1cc(-c2ccccc2N)nc(N2CC[C@@H](CO)C2)c1=O | > 99.5 µM
24 | O=C(O)c1cc(Cl)ccc1CNS(=O)(=O)c1ccc(Oc2ccccc2Cl)cc1 | 98.8 µM
25 | CCn1c(=O)c(N2C[C@@H]3CS(=O)(=O)C[C@@H]3C2)nc2ccccc21 | > 99.5 µM

Row | SMILES | IC50
26 | COc1cncc(CNC(=O)[C@@H](NC(=O)OCc2ccccc2)c2ccc(OCc3ccccc3)cc2)c1 | > 99.5 µM
27 | CCn1c(=O)c(N2CC[C@@H](CN3CCCCC3)C2)nc2ccccc21 | > 99.5 µM
28 | Cc1noc(C)c1-c1ccc([C@@H](NC(=O)OCc2ccccc2)C(=O)Nc2cccc(CN)c2)cc1 | > 99.5 µM
29 | O=C(O)Cn1ccnc(N2CC[C@@H](CO)C2)c1=O | > 99.5 µM
30 | CN1CCc2ccc(C(=O)N3CCNc4ccccc4C3)cc2C1 | > 99.5 µM
31 | NS(=O)(=O)c1ccc(N2CCC=C(c3cccc(O)c3)C2)c2ncccc12 | > 99.5 µM
32 | O=C(O)c1cc(Cl)ccc1NS(=O)(=O)c1ccc(N[C@H]2CCCOC2)nc1 | > 99.5 µM
33 | CCn1c(=O)c(N2C[C@@H]3CCO[C@]3(COC)C2)nc2ccccc21 | > 99.5 µM
34 | CCn1c(=O)c(N2CCC[C@H]2c2noc(C)n2)nc2ccccc21 | > 99.5 µM
35 | CN(C)Cc1ccccc1CNC(=O)[C@@H](NC(=O)OCc1ccccc1)c1ccc(OCc2ccccc2)cc1 | > 99.5 µM
36 | CN(C)Cc1cncc(NC(=O)[C@@H](NC(=O)OCc2ccccc2)c2ccc(OCc3ccccc3)cc2)c1 | > 99.5 µM
37 | Cc1nc(-c2ccc([C@@H](NC(=O)OCc3ccccc3)C(=O)Nc3cccc(CN)c3)cc2)cs1 | > 99.5 µM
38 | O=C(N[C@H](C(=O)NCc1ccc(F)cc1)c1ccc(OCc2ccccc2)cc1)OCc1ccccc1 | > 99.5 µM
39 | CCn1c(=O)c(N2CC[C@@]3(COC(=O)N3)C2)nc2ccccc21 | > 99.5 µM
40 | NCc1cccc(NC(=O)[C@@H](NC(=O)OCc2ccccc2)c2ccc(C3=CCCOC3)cc2)c1 | > 99.5 µM
41 | CN1CC[C@H](C2CCN(S(=O)(=O)c3cc(F)cc(C(=O)O)c3)CC2)C1 | > 99.5 µM
42 | CN(C)CCOc1cccc(CNC(=O)[C@@H](NC(=O)OCc2ccccc2)c2ccc(OCc3ccccc3)cc2)c1 | > 99.5 µM
43 | CCn1cc(C(=O)O)nc(N2CC[C@@H](CO)C2)c1=O | > 99.5 µM
44 | Cc1cnn(-c2cccc(-c3cccc(C4(CN)CC4)c3)c2)c1 | > 99.5 µM
45 | O=C(N[C@@H](C(=O)NCc1cccnc1)c1ccc(OCc2ccccc2)cc1)OCc1ccccc1 | > 99.5 µM
46 | CS(=O)(=O)c1cccc(CNC(=O)[C@@H](NC(=O)OCc2ccccc2)c2ccc(OCc3ccccc3)cc2)c1 | > 99.5 µM
47 | CCn1c(=O)c(N2CCC[C@H]2c2cncc(Br)c2)nc2ccccc21 | > 99.5 µM
48 | O=C(N[C@@H](C(=O)NCc1c[nH]cn1)c1ccc(OCc2ccccc2)cc1)OCc1ccccc1 | > 99.5 µM
49 | Cc1ccc(COc2ccc(S(=O)(=O)Nc3ccc(Cl)cc3C(=O)O)cc2)cc1 | 9.45 µM
50 | O=C(N[C@@H](C(=O)NC1CCCCC1)c1ccc(OCc2ccccc2)cc1)OCc1ccccc1 | > 99.5 µM

Row | SMILES | IC50
51 | CCn1c(=O)c(N2CC[C@H](NC(=O)NC3CC3)C2)nc2ccccc21 | > 99.5 µM
52 | NCc1cccc(NC(=O)[C@@H](NC(=O)OCc2ccccc2)c2ccc(-c3ccc4cn[nH]c4c3)cc2)c1 | 6.06 µM and 6 µM and 5.75 µM
53 | CN1CCC(c2nc(C(F)(F)F)n3c2CN(c2cccc(C(N)=O)n2)CC3)CC1 | > 99.5 µM
54 | CCn1c(=O)c(N2C[C@H]3COC(C)(C)OC[C@H]3C2)nc2ccccc21 | > 99.5 µM
55 | CN1CCc2ncc(NC(=O)[C@@H](NC(=O)OCc3ccccc3)c3ccc(OCc4ccccc4)cc3)cc2C1 | > 99.5 µM
56 | CCn1c(=O)c(N2CC(S(=O)(=O)N3CCCC3)C2)nc2ccccc21 | > 99.5 µM
57 | OCc1ccc(Cl)c(N2CCN(c3ccc4[nH]cnc4c3)CC2)n1 | > 99.5 µM
58 | CCn1c(=O)c(N2C[C@@H]3[C@H](C2)[C@H]3C(=O)OC)nc2ccccc21 | > 99.5 µM
59 | NCc1cccc(NC(=O)[C@@H](NC(=O)OCc2ccccc2)c2ccc(-c3cccc4nonc34)cc2)c1 | 11.6 µM and 5.73 µM
60 | CC(C)c1cnc(COc2ccc(S(=O)(=O)Nc3ccc(Cl)cc3C(=O)O)cc2)o1 | 55.7 µM
61 | CS(=O)(=O)NC(=O)c1cc(Cl)ccc1NS(=O)(=O)c1ccc(Oc2ccccc2Cl)cc1 | 12.2 µM
62 | O=C(N[C@@H](C(=O)NCc1ccncc1)c1ccc(OCc2ccccc2)cc1)OCc1ccccc1 | > 99.5 µM
63 | CCn1c(=O)c(N2CC[C@@H](Cc3ccncc3)C2)nc2ccccc21 | > 99.5 µM
64 | CN(C)Cc1ccc(CNC(=O)[C@@H](NC(=O)OCc2ccccc2)c2ccc(OCc3ccccc3)cc2)cc1 | > 99.5 µM
65 | NS(=O)(=O)c1cc(F)c(Cl)cc1N1CCN(c2ccnc(O)c2)CC1 | > 99.5 µM
66 | CCn1c(=O)c(N2CC[C@@]23CCN(C)C3)nc2ccccc21 | > 99.5 µM
67 | CCn1c(=O)c(N2CC3(CCCCC3)C[C@H]2CO)nc2ccccc21 | > 99.5 µM
68 | NCc1cccc(NC(=O)[C@@H](NC(=O)OCc2ccccc2)c2ccc(-c3ccc(N)nc3)cc2)c1 | > 99.5 µM
69 | CN(C)Cc1cc(CNC(=O)[C@@H](NC(=O)OCc2ccccc2)c2ccc(OCc3ccccc3)cc2)ccc1F | > 99.5 µM
70 | CCn1c(=O)c(N2C[C@H]3CN(C)CC[C@H]3C2)nc2ccccc21 | > 99.5 µM
71 | COc1ccc(COc2ccc(S(=O)(=O)Nc3ccc(Cl)cc3C(=O)O)cc2)nc1 | 74.1 µM
72 | CC(C)(C)c1ncc(-c2ccc([C@@H](NC(=O)OCc3ccccc3)C(=O)Nc3cccc(CN)c3)cc2)o1 | > 99.5 µM
73 | CCn1c(=O)c(N2CC[C@]3(CCCN(C)C3)C2)nc2ccccc21 | > 99.5 µM
74 | O=C(O)c1ncc(F)cc1NS(=O)(=O)c1ccc(Oc2ccccc2Cl)cc1 | 61.7 µM
75 | CCn1c(=O)c(N2C[C@H]3OCCN(C(C)=O)[C@H]3C2)nc2ccccc21 | > 99.5 µM

Row | SMILES | IC50
76 | C[C@@H]1c2cccnc2CCN1Cc1cccc(CN(C)C)c1 | > 99.5 µM
77 | NCc1cccc(NC(=O)[C@@H](NC(=O)OCc2ccccc2)c2cccc(OCc3cncnc3)c2)c1 | > 99.5 µM
78 | O=C(N[C@@H](C(=O)Nc1cccnc1)c1ccc(OCc2ccccc2)cc1)OCc1ccccc1 | > 99.5 µM
79 | CCn1cc(-c2ccc(S(C)(=O)=O)cc2)nc(N2CC[C@@H](CO)C2)c1=O | > 99.5 µM
80 | CCn1c(=O)c(N2CC[C@@]3(CCCN3C)C2)nc2ccccc21 | > 99.5 µM
81 | CNc1nc2cc(-c3ccc4c(c3)C[C@H](N)C4)ccc2o1 | > 99.5 µM
82 | CN(C)[C@H]1CCc2cc(-c3cccc(N4CCNC4=O)c3)ccc2NC1 | > 99.5 µM
83 | NCc1cccc(NC(=O)[C@@H](NC(=O)OCc2ccccc2)c2ccc(-c3ccncc3F)cc2)c1 | > 99.5 µM
84 | O=C(O)c1cc(Cl)c(F)cc1NS(=O)(=O)c1ccc(Oc2ccccc2)cc1 | 13.1 µM
85 | COc1ccccc1-c1ccc([C@@H](NC(=O)OCc2ccccc2)C(=O)Nc2cccc(CN)c2)cc1 | > 99.5 µM
86 | CCn1cc(-c2ccc(CN(C)C)cc2)nc(N2CC[C@@H](CO)C2)c1=O | > 99.5 µM
87 | CC(C)(CO)NC(=O)[C@@H](NC(=O)OCc1ccccc1)c1ccc(OCc2ccccc2)cc1 | > 99.5 µM
88 | Cc1n[nH]cc1-c1ccc([C@@H](NC(=O)OCc2ccccc2)C(=O)Nc2cccc(CN)c2)cc1 | > 99.5 µM
89 | Cn1cc(-c2ccc([C@@H](NC(=O)OCc3ccccc3)C(=O)Nc3cccc(CN)c3)cc2)ccc1=O | > 99.5 µM
90 | CCn1c(=O)c(N2C[C@H]3CCCN3C(=O)[C@H]2C)nc2ccccc21 | > 99.5 µM
91 | CCn1c(=O)c(N2CCC[C@H]2CN2CCCC2)nc2ccccc21 | > 99.5 µM
92 | CCn1cc(-c2cccc(-c3ccccc3)c2)nc(N2CC[C@@H](CO)C2)c1=O | > 99.5 µM
93 | O=C(N[C@@H](C(=O)NCc1ccccn1)c1ccc(OCc2ccccc2)cc1)OCc1ccccc1 | > 99.5 µM
94 | CCn1cc(-c2cn(C)nc2C(F)(F)F)nc(N2CC[C@@H](CO)C2)c1=O | > 99.5 µM
95 | CCn1c(=O)c(N2CC[C@H](N3CCN(C)CC3)C2)nc2ccccc21 | > 99.5 µM
96 | CCn1c(=O)c(N2CCC[C@H]2c2ncccn2)nc2ccccc21 | > 99.5 µM
97 | Cn1nc(C2CCN(C(=O)c3ccccc3CSc3nnc[nH]3)CC2)cc1O | > 99.5 µM
